In PMC11799239, “Mechanistic insights into Rho/MRTF inhibition-induced apoptotic events and prevention of drug resistance in melanoma: implications for the involvement of pirin” (Frontiers in Pharmacology, 2025):

Target: T1, pirin (Homo sapiens, UniProt O00625)
T1 construct: gene PIR
T1 sequence (O00625 1-290): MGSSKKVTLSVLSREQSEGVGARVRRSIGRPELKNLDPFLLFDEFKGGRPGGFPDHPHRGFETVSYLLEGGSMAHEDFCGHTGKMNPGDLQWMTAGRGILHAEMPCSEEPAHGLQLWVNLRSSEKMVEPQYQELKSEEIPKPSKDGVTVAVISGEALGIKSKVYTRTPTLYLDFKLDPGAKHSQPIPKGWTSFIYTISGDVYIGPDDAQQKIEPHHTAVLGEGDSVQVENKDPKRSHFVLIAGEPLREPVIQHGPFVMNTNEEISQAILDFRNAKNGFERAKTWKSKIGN
Assay: fluorescence polarization competition with a pirin FP reporter compound
Format: binding
Conditions: read-out: CCG-257081 (S enantiomer) [drawing 1]

O=C(Nc1ccc(Cl)cc1)[C@@H]1CN(C(=O)c2cc(F)cc(-c3ccncc3)c2)CC(F)(F)C1 [(S) CCG-257081]
IC50: 8 µM
